ChEMBL document CHEMBL3808320, “1,4-Diphenalkylpiperidines: A new scaffold for the design of potent inhibitors of the vesicular monoamine transporter-2” (Bioorg Med Chem Lett, 2016)

How the values were obtained:
[1] = biological target: T1, Synaptic vesicular amine transporter (Rattus norvegicus, UniProt Q01827); experiment: Displacement of [3H]DTBZ from VMAT2 in rat whole brain vesicles homogenate after 30 mins by liquid scintillation counting; type: tissue-based
[2] = biological target: T1, Synaptic vesicular amine transporter; experiment: Inhibition of [3H]DA uptake at VMAT2 in rat striata vesicles homogenate after 8 mins by liquid scintillation counting
[3] = biological target: Synaptic vesicular amine transporter (Rattus norvegicus) (UniProt Q01827); experiment: Potency index, ratio of lobelane Ki to compound Ki for VMAT2 in rat striata vesicles homogenate
Chain of Synaptic vesicular amine transporter (Rattus norvegicus) (Q01827 whole entry): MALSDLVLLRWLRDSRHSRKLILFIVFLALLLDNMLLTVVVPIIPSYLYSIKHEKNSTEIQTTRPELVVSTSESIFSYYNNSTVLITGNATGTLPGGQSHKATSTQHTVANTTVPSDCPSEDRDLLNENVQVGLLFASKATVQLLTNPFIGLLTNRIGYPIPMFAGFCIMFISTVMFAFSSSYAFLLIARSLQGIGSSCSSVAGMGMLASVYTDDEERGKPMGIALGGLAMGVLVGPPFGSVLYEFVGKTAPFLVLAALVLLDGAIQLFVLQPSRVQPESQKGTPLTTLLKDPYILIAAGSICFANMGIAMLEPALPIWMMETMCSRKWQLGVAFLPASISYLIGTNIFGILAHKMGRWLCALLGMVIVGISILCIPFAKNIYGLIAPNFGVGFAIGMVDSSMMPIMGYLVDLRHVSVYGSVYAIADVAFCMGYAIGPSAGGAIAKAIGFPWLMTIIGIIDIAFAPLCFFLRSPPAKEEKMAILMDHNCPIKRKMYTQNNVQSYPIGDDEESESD

[4] = biological target: Synaptic vesicular amine transporter (Rattus norvegicus) (UniProt Q01827); experiment: Potency index, ratio of lobelane Ki to compound Ki for VMAT2 in rat whole brain vesicles homogenate

T1 sequence (Q01827 whole entry): as above

Structure (SMILES) | Ki [1] | Ratio Ki [3] | also measured
COc1ccccc1CCN1CCC(CCc2ccccc2)CC1 | 260 nM |  | 
COc1cccc(CCN2CCC(CCc3ccccc3)CC2)c1 | 270 nM |  | 
c1ccc(CCC2CCN(CCc3ccccc3)CC2)cc1 |  |  | Ki [2]: 120 nM
COc1cccc(CCN2CCC(Cc3ccccc3)CC2)c1 | 1500 nM |  | 
COc1ccc(CCC2CCN(CCc3ccc(OC)cc3)CC2)cc1 | 2500 nM |  | 
COc1cccc(CCN2CCC(CCc3ccccc3OC)CC2)c1 |  | 4 | Ratio Ki [4]: 5
COc1ccccc1CCC1CCN(CCc2ccc(F)cc2)CC1 |  | 4 | 
COc1ccccc1CCC1CCN(CCc2ccccc2OC)CC1 |  | 4 | Ratio Ki [4]: 5
COc1ccc(CCN2CCC(Cc3ccccc3)CC2)cc1 | 1900 nM |  | 
COc1ccccc1CCN1CCC(Cc2ccccc2)CC1 | 2800 nM |  | 
